In US8017588B2, “Clarithromycin or salt thereof for use in the treatment or prevention of pulmonary disease induced by destruction of pulmonary alveoli” (Taisho Pharmaceutical Co., Ltd, priority 2005, dated 2011):

Legend:
[1] = system: macrophages and neutrophiles in bronchoalveolar lavage fluids; test: Cell counts of inflammatory cells in bronchoalveolar lavage fluids of model mice with tobacco smoke-induced pulmonary emphysema; assay type: in vivo, C57black/6 female mice; details: after six months' exposure, 25, 50 or 100 mg/kg orally twice daily
Description: The model mice with tobacco smoke-induced pulmonary emphysema mimicking human pulmonary emphysema were constructed according to the method as described in Hautamaki, R. D. et al., Science 1997, 277:2002-2004 or Shapiro, S. D. et al., Am. J. Pathol (2003) 163:2329-2335. Specifically, C57black/6 female mice of 12-weeks old were exposed to tobacco smoke at two cigarettes per day, 6 days per week for 6 months. Administration of clarithromycin was carried out orally at the rate of 25, 50 or 100 […] twice daily (morning and evening) during the tobacco smoke exposure period. The plasma AUC0-∞ of clarithromycin obtained when 50 mg/kg was singly administered to the mice was 2.677 μg·hr/ml while the plasma AUC0-∞ of clarithromycin obtained when 200 mg of clarithromycin was singly administered to a normal human subject was 8.98 μg·hr/ml. The former concentration was substantially lower than the latter one and was an adequate concentration to be used clinically. The cell counts of inflammatory cells (macrophages and neutrophiles) in the bronchoalveolar lavage fluids after six months' exposure were measured to provide an index of the inflammatory condition in the model mice with tobacco smoke-induced pulmonary emphysema. […]

[2] = system: model mice with tobacco smoke-induced pulmonary emphysema; test: Pulmonary compliance in model mice with tobacco smoke-induced pulmonary emphysema; assay type: in vivo, C57black/6 female mice; details: after six months' exposure; FIG. 2
Description: The model mice with tobacco smoke-induced pulmonary emphysema mimicking human pulmonary emphysema were constructed according to the method as described in Hautamaki, R. D. et al., Science 1997, 277:2002-2004 or Shapiro, S. D. et al., Am. J. Pathol (2003) 163:2329-2335. Specifically, C57black/6 female mice of 12-weeks old were exposed to tobacco smoke at two cigarettes per day, 6 days per week for 6 months. Administration of clarithromycin was carried out orally at the rate of 25, 50 or 100 […] twice daily (morning and evening) during the tobacco smoke exposure period. The plasma AUC0-∞ of clarithromycin obtained when 50 mg/kg was singly administered to the mice was 2.677 μg·hr/ml while the plasma AUC0-∞ of clarithromycin obtained when 200 mg of clarithromycin was singly administered to a normal human subject was 8.98 μg·hr/ml. The former concentration was substantially lower than the latter one and was an adequate concentration to be used clinically. It has been reported that as pulmonary emphysema progresses, pulmonary functions deteriorate. It has also been known that the pulmonary compliance, which is an index of pulmonary functions, increases in model mice with tobacco smoke-induced pulmonary emphysema. Thus, the pulmonary compliance was measured in the model mice with tobacco smoke-induced pulmonary emphysema after six months' exposure.

[3] = Plasma AUC after single administration to mice; assay type: in vivo; details: C57black/6, mouse, oral, 50 mg/kg singly administered, read-out: plasma AUC0-∞
Description: (§1) Administration of clarithromycin was carried out orally at the rate of 25, 50 or 100 […] twice daily (morning and evening) during the tobacco smoke exposure period. The plasma AUC0-∞ of clarithromycin obtained when 50 mg/kg was singly administered to the mice was 2.677 μg·hr/ml while the plasma AUC0-∞ of clarithromycin obtained when 200 mg of clarithromycin was singly administered to a normal human subject was 8.98 μg·hr/ml. The former concentration was substantially lower than the latter one and was an adequate concentration to be used clinically.

[4] = Plasma AUC after single administration to a normal human subject; assay type: in vivo; details: 200 mg singly administered, read-out: plasma AUC0-∞
Description: as §1

CC[C@H]1OC(=O)[C@H](C)[C@@H](O[C@H]2C[C@@](C)(OC)[C@@H](O)[C@H](C)O2)[C@H](C)[C@@H](O[C@@H]2O[C@H](C)C[C@H](N(C)C)[C@H]2O)[C@](C)(OC)C[C@@H](C)C(=O)[C@H](C)[C@@H](O)[C@]1(C)O [clarithromycin]
cell count of macrophages in bronchoalveolar lavage fluid ([1]; FIG. 1A): reduced the cell counts of macrophages and neutrophiles in a dose-dependant manner
cell count of neutrophiles in bronchoalveolar lavage fluid ([1]; FIG. 1B): reduced the cell counts of macrophages and neutrophiles in a dose-dependant manner
pulmonary compliance [2]: the pulmonary compliance recovered
AUC(0-inf) [3]: 2680 ng·h/mL
AUC(0-inf) [4]: 8980 ng·h/mL
